In patent US20230330221A1, “ADJUVANT BASED ON PEPTIDE NUCLEIC ACID” (priority 2019, published 2023):
Entries after “also recorded” stand apart in the source; their conditions may differ. Like-named read-outs stand apart in the source and are kept apart here.

Columns and labels:
[1] = tested on: A/Singapore/GP1908/2015 strain; type: in vivo, BALB/c mouse; details: subcutaneous, 1 μg adjuvant per shot, after the second administration; rank among MIP01, adjuvant-free and CPP01 groups (FIG. 2)
[2] = tested on: A/Singapore/GP1908/2015 strain; type: in vivo, BALB/c mouse; details: transnasal, 10 μg adjuvant per shot; rank among MIP01, adjuvant-free and CPP01 groups (FIG. 4A)
[3] = tested on: B/Maryland/15/2016 strain; type: in vivo, BALB/c mouse; details: transnasal, 10 μg adjuvant per shot; rank among MIP01, adjuvant-free and CPP01 groups (FIG. 4B)
[4] = tested on: A/Singapore/GP1908/2015 strain; type: in vivo, BALB/c mouse; details: subcutaneous, both first and second administrations
[5] = tested on: B/Maryland/15/2016 strain; type: in vivo, BALB/c mouse; details: subcutaneous, both first and second administrations
[6] = tested on: A/Singapore/GP1908/2015 strain; type: in vivo; details: transnasal, 10 μg adjuvant + 1 μg HA split antigen per shot, BALB/c mouse, both first and second administrations; versus adjuvant-free group (FIG. 3A)
[7] = tested on: B/Maryland/15/2016 strain; type: in vivo; details: transnasal, 10 μg adjuvant + 1 μg HA split antigen per shot, BALB/c mouse, both first and second administrations; versus adjuvant-free group; Mann-Whitney U test, p<0.05 (FIG. 3B)

Substance	neutralizing antibody titer against A/Singapore/GP1908/2015 strain [1]	antigen-specific IgA titer in the nasal cavity wash against A/Singapore/GP1908/2015 strain [2]	antigen-specific IgA titer in the nasal cavity wash against B/Maryland/15/2016 strain [3]	blood antigen-specific IgG titer against A/Singapore/GP1908/2015 strain ([4]; 1 μg adjuvant + 1 μg HA split antigen per shot, BALB/c mouse, versus adjuvant-free group (FIG. 1A))	blood antigen-specific IgG titer against A/Singapore/GP1908/2015 strain ([4]; 1 μg adjuvant per shot, compared to the CPP01 administration group (FIG. 1A))	blood antigen-specific IgG titer against B/Maryland/15/2016 strain ([5]; 1 μg adjuvant + 1 μg HA split antigen per shot, BALB/c mouse, versus adjuvant-free group (FIG. 1B))	blood antigen-specific IgG titer against B/Maryland/15/2016 strain ([5]; 1 μg adjuvant per shot, compared to the CPP01 administration group (FIG. 1B))	blood antigen-specific IgG titer against A/Singapore/GP1908/2015 strain [6]	blood antigen-specific IgG titer against B/Maryland/15/2016 strain [7]
GRKKRRQRRRPPQ (Human immunodeficiency virus) [CPP01, reference compound]	lowest value	lowest	lowest						
GRKKRRQRRRPPQ-G3PNA (C-terminal G3PNA conjugate; Human immunodeficiency virus) [MIP01]	highest value	highest	highest	higher as compared to that in the adjuvant-free group	showed a higher blood antigen-specific IgG titer	higher as compared to that in the adjuvant-free group	showed a higher blood antigen-specific IgG titer	higher as compared to that in the adjuvant-free group	higher as compared to that in the adjuvant-free group; also recorded: significant increase in antibody titer with respect to the adjuvant-free group
